Assay [1] relates to Rif^r APEC O78. Briefly: Wax moth (Galleria mellonella) larva infection model (AI-2 inhibitors). To be noted: for larval death: 48 h post treatment.
Assay [2] concerns AI-2 activity of APEC O35. Briefly: AI-2 bioluminescence indicator assay (V. harveyi BB170). Conditions: APEC O35, 100 µM.
Assay [3] relates to Rif^r APEC O78. Briefly: In vivo screening of quorum sensing inhibitors in APEC infected broiler chickens. Conditions: for reduction in chicken mortality: DMSO control mortality normalized to 100%; for Mortality rate (%): oral gavage once a day, day 4 to day 8, DMSO control 66.7%; for Reduction in APEC lesions severity, Air-sacs (%) / Reduction in APEC lesions severity, Heart (%) / Reduction in APEC lesions severity, Liver (%) / Reduction in APEC lesions severity, Lung (%): vs DMSO treated control.

Another assay relates to AI-2 activity of APEC O2. Briefly: AI-2 bioluminescence indicator assay (V. harveyi BB170). To be noted: APEC O2, 100 µM.
For a further assay, the system named is AI-2 activity of APEC O8. The description is as above. To be noted: APEC O8, 100 µM.
The subject of assay [4] is AI-2 activity of APEC O15. The assay is described as above. To be noted: APEC O15, 100 µM.
Assay [5] has as its system AI-2 activity of APEC O109. Described as above. Conditions: APEC O109, 100 µM.
The subject of assay [6] is AI-2 activity of APEC O18. Described as above. Conditions: APEC O18, 100 µM.
The next assay concerns AI-2 activity of APEC O1. The assay is described as above. Conditions: APEC O1, 100 µM.
Assay [7] relates to AI-2 activity of APEC O115. The description is as above. Conditions: APEC O115, 100 µM.
The test system of assay [8] is AI-2 activity of APEC O78. The description is as above. To be noted: APEC O78, 100 µM.
Assay [9] concerns QS and virulence associated genes of APEC O78. Nature of the assay: qRT-PCR of QS-regulated and virulence factors genes. The assay is classed as cell-based, avian pathogenic Escherichia coli (APEC). To be noted: 100 µM, 10 h. On the procedure:
Quantitative real-time reverse transcription PCR (qRT-PCR). […] APEC O78 was grown in the presence of 100 µM of each compound in a 96-well plate at 37° C. for 10 h. APEC O78 culture treated with 1 µL of 100% DMSO was used as […]. Total RNA was extracted from duplicate wells for each compound (200 µL) using a miRNeasy Mini Kit (Qiagen). RNA quality and quantity was determined by nanodrop 2000 C spectrophotometer (Thermo scientific). Traces of DNA was removed using Genomic DNA removal mix (Qiagen). Approximately, 5 µg of purified RNA was used to synthesize cDNA using the Qiagen RT^2 First Strand Kit (Qiagen). The qRT-PCR was performed using SensiMix™ SYBER® Hi-Rox qPCR Master Mix (Bioline) according to manufacturer instructions in a realplex^2 mastercycler (Eppendorf) with 55° C. annealing temperature. Gene-specific primers were designed using PrimerQuest Tool and obtained from integrated DNA technologies (IDT). The data were normalized to the house-keeping gene, glyceraldehyde-3-phosphate dehydrogenase (GAPDH). The relative fold change was calculated using the ΔΔCt method. Three independent experiments were conducted.
On the technique in general: Real-time PCR tracks product formation cycle by cycle.

The next assay deals with APEC O2 in HD-11 cells. Briefly: Intracellular survival assay (AI-2 inhibitors). To be noted: O2, HD-11, 100 µM, 6 h.

The structures appear in SMILES notation.

On to `Cc1ccccc1N1CCN(C2CCCN(C(=O)c3ccc(F)c(Cl)c3)C2)CC1` (stereo not shown) [C2, 1-[1-{3-chloro-4-fluorbenzoyl)-3-piperdinyl]-4-(2-methylphenyl)piperazine], for which the larval death result in the assay with Rif^r APEC O78 [1] is given as “no larval death”. In addition, the “clearance of APEC in live larvae” value in the assay on Rif^r APEC O78 [1] (72 h) turned out to be 100%. The “Inhibition % of AI-2 activity” value in assay [2] came to 55%; in the assay with AI-2 activity of APEC O2, 96%; with AI-2 activity of APEC O8, 20%; in assay [4], 27%; in [5], 57%; in assay [6] it was 43%. Also, the “Inhibition % of AI-2 activity” value with AI-2 activity of APEC O1 is listed as 64%; in assay [7] it was 52%; in [8], 92%. For the same compound, the “reduction in chicken mortality” value in the assay on Rif^r APEC O78 [3] was determined as 50%. The “Mortality rate (%)” value in the assay with Rif^r APEC O78 [3] is 33.3%. Also, the “Reduction in APEC lesions severity, Air-sacs (%)” value in the assay on Rif^r APEC O78 [3] turned out to be 63.3%. Besides, in the assay on Rif^r APEC O78 [3], the “Reduction in APEC lesions severity, Heart (%)” value was found to be 37.5%. The “Reduction in APEC lesions severity, Liver (%)” value with Rif^r APEC O78 [3] was found to be 45.5%. In addition, in the assay with Rif^r APEC O78 [3], the “Reduction in APEC lesions severity, Lung (%)” value was determined as 88.9%.

Take `Cc1ccc(CN2CCN(CCCc3ccccc3)CC2)cc1` [C5]: in assay [9], the “expression of fliP” value is given as “down-regulated”. In addition, in [9], the expression of fpr entry is on record as “down-regulated”. Further, the larval death result with Rif^r APEC O78 [1] is on record as “no larval death”. For the same compound, the “Inhibition % of AI-2 activity” value worked out at 68% in assay [2]; 89% with AI-2 activity of APEC O2; 18% in the assay on AI-2 activity of APEC O8; 45% in assay [4]; 69% in assay [5]; 61% in assay [6]. The “Inhibition % of AI-2 activity” value was 46% in the assay on AI-2 activity of APEC O1, 63% in [7] and 83% in assay [8]. For the same compound, the “reduction in chicken mortality” value with Rif^r APEC O78 [3] is given as 100%. In the assay on Rif^r APEC O78 [3] (liver, heart, lung and airsac, vs DMSO), the “average lesion score reduction” value is on record as 2.1-2.3. In the assay with Rif^r APEC O78 [3] (liver, lung, heart, and kidney, vs DMSO control, 'up to'), the “reduction of bacterial load in internal organs” value is given as 5.2-6.1 log CFU/g. Also, the “Mortality rate (%)” value in the assay with Rif^r APEC O78 [3] was 0%. Further, in the assay with Rif^r APEC O78 [3], the “Reduction in APEC lesions severity, Air-sacs (%)” value amounted to 93.3%. Also, the “Reduction in APEC lesions severity, Heart (%)” value in the assay with Rif^r APEC O78 [3] was found to be 87.5%. Also, the “Reduction in APEC lesions severity, Liver (%)” value in the assay with Rif^r APEC O78 [3] amounted to 81.8%. In addition, in the assay on Rif^r APEC O78 [3], the “Reduction in APEC lesions severity, Lung (%)” value is recorded as 88.9%. Also, the “effect on body weight gain” value in the assay with Rif^r APEC O78 [3] (vs non-treated and non-infected control group) is “increased BWG”. The “clearance of intracellular APEC” value in the assay with APEC O2 in HD-11 cells is on record as 100%. Moreover, the “reduction of intracellular survival” value in the assay with APEC O2 in HD-11 cells (vs DMSO) is given as 3.3 logs.

Source of the values: patent US20230355597A1, “COMPOUNDS, COMPOSITIONS, AND METHODS FOR THE TREATMENT AND PREVENTION OF AVIAN PATHOGENIC E. COLI (APEC)” (OHIO STATE INNOVATION FOUNDATION, priority 2018, published 2023).
